Results on seven compounds are retold here after publication PMC12734683 (Chemistry (Weinheim an Der Bergstrasse, Germany), 2025).

Each structure is given as a SMILES string.

Assay [1] has as its system d(5′‐CGCGAATTCGCG‐3′)2 (DNA, duplex) CGCGAATTCGCG
The assay is described as follows: ethidium bromide displacement fluorescence quenching, double-log plot. As to conditions: 100 mM phosphate (cation not given); pH 7.0, 298 K; 20 μM DNA, 5.2 μM ethidium bromide displaced; apparent.

For assay [2] the test system is unchanged. The assay is described as follows: 1H NMR titration. As to conditions: 100 mM phosphate (cation not given), H2O:D2O 9:1, pH 7.0, 298 K, r = 0.5-2.
The test system of assay [3] is A2780cis‐res. The assay is described as follows: Cell growth assay (IncuCyte Zoom), cytotoxicity. In kind it is cell-based, human. On the procedure: (§1) The human breast adenocarcinoma cell line MCF-7 and the mouse embryonic fibroblast cell line NIH-3T3 were cultured in high- glucose Dulbecco’s modified Eagle’s medium (DMEM) supplemented with 10% fetal bovine serum and 1% penicillin/ streptomycin. The human ovarian cancer cell line A2780 and its cisplatin resistant derivative (A2780cis-res) were maintained in RPMI-1640 medium supplemented with 10% fetal bovine serum and 1% penicillin/streptomycin. All cell lines were routinely passaged every 2 – 3 days, and incubated at 37 °C in a humidified atmosphere containing 5% CO2.
(§2) Cell growth and the cytotoxic effects of the complexes were monitored using the IncuCyte Zoom system and software(Essen BioScience, Hertfordshire, United Kingdom), as previously described^84. The IC50 values of cisplatin and of the complexes were determined by fitting a log(concentration) versus normalized response curve using GraphPad Prism, version 8.01.

Assay [4] relates to A2780. The assay is described as follows: Cell growth assay (IncuCyte Zoom), cytotoxicity. In kind it is cell-based, human. The procedure:
as §1, §2

Assay [5] has as its system MCF‐7. The assay is described as follows: Cell growth assay (IncuCyte Zoom), cytotoxicity. Format: cell-based, human. The procedure: as §1, §2
The subject of assay [6] is NIH-3T3. The assay is described as follows: Cell growth assay (IncuCyte Zoom), cytotoxicity to normal fibroblasts. Conditions: NIHT‐3T3 normal fibroblasts. Format: cell-based, mouse. On the procedure:
as §1, §2

`Cc1ccc(C(C)C)cc1.Cc1ccc(C(C)C)cc1.[Ru+2].[Ru+2].[c-]1cccc2ccc3cccnc3c12.[c-]1cccc2ccc3cccnc3c12.c1cc(-c2ccncc2)ccn1`: the K b in assay [1] is listed as 807.6 ± 19.9 × 10^3 M^-1.
`Cc1ccc(C(C)C)cc1.Cc1ccc(C(C)C)cc1.[Ru+2].[Ru+2].[c-]1cccc2ccc3cccnc3c12.[c-]1cccc2ccc3cccnc3c12.c1cc(CCCc2ccncc2)ccn1`: the K b in assay [1] is listed as 602.8 ± 76.1 × 10^3 M^-1.
Regarding `Cc1ccc(C(C)C)cc1.Cc1ccc(C(C)C)cc1.[Ru+2].[Ru+2].[c-]1cccc2ccc3cccnc3c12.[c-]1cccc2ccc3cccnc3c12.c1cc(CCc2ccncc2)ccn1`, in assay [1], the K b is listed as 298.4 ± 4.3 × 10^3 M^-1.
With `Cc1ccc(C(C)C)cc1.Cc1ccc(C(C)C)cc1.[Ru+2].[Ru+2].[c-]1cccc2ccc3cccnc3c12.c1cc(-c2ccncc2)ccn1.c1cnc2c(c1)ccc1cccnc12`, the binding entry in assay [2] (minor-groove intercalation) is “yes”. In addition, in assay [1], the K b is 5.59 ± 0.21 × 10^3 M^-1.
Take `Cc1ccc(C(C)C)cc1.Cc1ccc(C(C)C)cc1.[Ru+2].[Ru+2].[c-]1cccc2ccc3cccnc3c12.c1cc(CCCc2ccncc2)ccn1.c1cnc2c(c1)ccc1cccnc12`: the binding entry in assay [2] (groove binding) is recorded as “yes”. The K b in assay [1] was 6.70 ± 0.58 × 10^3 M^-1.
Regarding `Cc1ccc(C(C)C)cc1.Cc1ccc(C(C)C)cc1.[Ru+2].[Ru+2].[c-]1cccc2ccc3cccnc3c12.c1cc(CCc2ccncc2)ccn1.c1cnc2c(c1)ccc1cccnc12`, the binding result in assay [2] (groove binding at duplex ends) is given as “yes”. In addition, the K b in assay [1] is given as 28.51 ± 0.97 × 10^3 M^-1.
Consider `N.N.[Cl][Pt][Cl]` [cisplatin, reference compound], for which the “Resistant factor IC50 (A2780cisR)/IC50(A2780)” value in assay [3] is 7.3. Moreover, the IC50 is 18.4 ± 1.59 µM in assay [3] (A2780cis‐res cells), 2.54 ± 0.11 µM in assay [4] (A2780 cells), 14.6 ± 1.25 µM in assay [5] (MCF‐7 cells) and 3.02 ± 0.36 µM in assay [6]. In addition, in assay [3] (third of three values in the cell), the “Selectivity index IC50(NIHT‐3T3)/IC50(A2780cis‐res)” value came to 0.2. In addition, the “Selectivity index IC50(NIHT‐3T3)/IC50(A2780)” value in assay [4] is 0.2. In addition, in assay [5] (first of three values in the cell), the “Selectivity index IC50(NIHT‐3T3)/IC50(MCF‐7)” value is 1.2.
